# From US12133523B2, “Anti-freezing composition comprising self-assembly compound” (Korea University Research and Business Foundation, priority 2019, dated 2024)
# Entries after “also recorded” stand apart in the source; their conditions may differ. Residues, ends and D or L forms follow the SMILES beside them. *: point of attachment. Fmoc = O=C(OCC1c2ccccc2-c2ccccc21)*
# Tests used:
# [1] = test system: mouse embryonic stem cells (mESCs); test: mESC cell viability by CCK-8 assay and crystal violet dye; format: cell-based; settings: for toxicity to mESC: 5 to 20 uM, CCK-8 and crystal violet dye; for cell viability with respect to mESC: CCK-8
# Description: In a 60 mm cell culture dish coated with 0.1% gelatin (Sigma), mouse ES cells were cultured in a medium DMEM (Hyclone), to which 2 mM L-glutamine (Mediatech Inc.), 1% penicillin/streptomycin (Mediatech Inc.), 15% heat-inactivated fetal bovine serum (Hyclone), 20 mM HEPES-pH 7.3 (Cellgro), 0.1 mM MEM non-essential amino acid (Cellgro), 0.1 mM 2-mercaptoethanol (Sigma) and 1000 U/mL LIF (Millipore) are added, in order to prevent differentiation.
# Mouse ES cells were seeded by 8×10^4 cells per well in a 96-well plate containing the above various cryopreservation solutions. After 9 hours, CCK-8 reagent was added and fluorescence intensity was measured using an ELISA Reader (TECAN).
# […] Cells were washed with 500 μL of PBS and 500 μL of 4% PFA was added thereto for 15 minutes. The fixed cells were washed twice with 500 μL of PBS and 0.5% crystal violet solution was added thereto for 30 minutes. The stained cells were washed with tap water.
# [2] = Critical micellar concentration from emission intensity versus concentration; format: physicochemical
# [3] = test system: mouse embryonic stem cells (mESCs); test: Cryopreservation activity for mESC (freeze/thaw survival, differentiation); format: cell-based; settings: sample solution 10% (v/v), FBS 40%, media 50%; -80 °C then liquid nitrogen
# Description: 250 μL of trypsinized mouse ES cells, 200 μL of FBS and 50 μL of cryopreservation solution (0.005 μM, 0.01 μM, 0.05 μM, and 0.1 μM) were frozen in a rapid freezer for 2 days, and then stored in an LN2 tank. Thawing was performed in a 37° C. constant temperature water bath. The cell frozen stock mixture was inoculated in 4.5 mL medium of 15 mL tube, and then centrifuged at 1000 rpm for 5 minutes. Cell pellets were added with 1 mL medium and inoculated in a 6-well plate.
# A cell storage solution was prepared with a sample solution 10% (v/v), FBS 40% (v/v), and media 50% (v/v) according to the present invention, and frozen at −80° C. using a rapid freezer, then the cells were stored for 2 days, and further stored in a liquid nitrogen tank for 2 days or more. Then, the cells were thawed and used in the experiment. In addition, the cells were cultured by treatment with a leukemia inhibitory factor (LIF) to confirm the differentiation ability of stem cells. All the controls were cultured and differentiated under the same conditions, except that deionized water was added instead of the sample according to the present invention.
# [4] = Ice recrystallization inhibition (IRI) splat assay, MLGS from DFOM images; settings: for IRI effect: ice recrystallized 30 minutes at -6 °C
# Description: In order to more clearly confirm the effect of inhibiting ice crystal growth, ice recrystallization inhibition (IRI) characteristics were analyzed. Analysis of ice recrystallization was performed by reference Mitchell, D. E., Clarkson, G., Fox, D. J., Vipond, R. A., Scott, P., & Gibson, M. I. (2017). Antifreeze Protein Mimetic Metallohelices with Potent Ice Recrystallization Inhibition Activity. Journal of the American Chemical Society, 139(29), 9835-9838 and Budke, C., Heggemann, C., Koch, M., Sewald, N., & Koop, T. (2009). Ice Recrystallization Kinetics in the Presence of Synthetic Antifreeze Glycoprotein Analogues Using the Framework of LSW Theory. The Journal of Physical Chemistry B, 113(9), 2865-2873. More specifically, a 10 μL sample was dropped from a height of 1.5 m onto a surface of a cover glass precooled to −60° C. so as to form a thin film of ice. […] During recrystallization of ice, dark-field optical microscopy (DFOM) images were taken, and ten of the largest ice crystal domains were chosen and a mean value thereof was obtained to evaluate the IRI activity. A mean largest grain size (MLGS) analysis was repeated three times.
# [5] = Freezing control on food (beef frozen at -20 °C, thawed; SEM, optical microscope, TEM)
# Description: In order to determine whether Fmoc-FFT can be used as a cryoprotectant for foods, Fmoc-FFT was added to beef (FIG. 22a), then frozen at −20° C. for one day, thawed at room temperature, and then SEM images were observed (FIGS. 22b and d).
# After freezing and thawing, Fmoc-FFT was added to water in order to confirm the beef tissue, frozen at −20° C., then the process of recrystallization of ice was observed under an optical microscope.
# Further, in order to confirm the tissue change in more detail, the thawed tissue was rapidly frozen in liquid nitrogen, then cut while maintaining −20° C., and the internal tissue was checked. […] It was observed that, when the Fmoc-FFT was not added, the size of tissue pore was 22±8.6 μm, while it was 5±2.3 μm when adding the same.
# [6] = Gold nanoparticle (MPA-AuNP) colorimetric freeze/thaw assay for TH and IRI activity; settings: for aggregation of gold particles after freezing/thawing (absorption peak shift 525 nm to 650 nm): 50 μL of 0.5 mM sample in 350 μL of 300 μM MPA-AuNP, -65 °C 23 min
# Description: Thermal hysteresis (TH) as anti-freezing activity was measured in accordance with the method described in Park, J.-I., Lee, J. H., Gwak, Y., Kim, H. J., Jin, E., & Kim, Y.-P. (2013). Frozen assembly of gold nanoparticles for rapid analysis of antifreeze protein activity. Biosensors and Bioelectronics, 41, 752-757, and ice recrystallization inhibition (IRI) activity was measured based on Mitchell, D. E., Congdon, T., Rodger, A., & Gibson, M. I. (2015). Gold Nanoparticle Aggregation as a Probe of Antifreeze (Glyco) Protein-Inspired Ice Recrystallization Inhibition and Identification of New IRI Active Macromolecules. Scientific Reports, 5(1). More specifically, when dispersing AFP in a solution in which gold nanoparticles are dispersed, and freezing the solution then thawing again, if the AFP has good conjugating force with an ice crystal surface, the dispersibility of gold nanoparticles is good to maintain an original color of the solution, whereas if it has weak conjugating force, AFP is precipitated, and when ice crystals are rapidly formed, the solution is subjected to color change.
# Gold nanoparticles (Cit-AuNP) stabilized with citric acid were synthesized to prepare mercaptopropionic acid (MPA)-AuNP. 20 mL of a storage solution containing 1 mM HAuCl4·3H2O was added to 50 mL of deionized water (DI water). After the solution was stirred and heated to a boiling point, 30 mM sodium citric acid in 2 mL of deionized water was further added to the solution and heated for 20 minutes. The color of the solution changed from bright yellow to burgundy. […] An average size of MPA-capped AuNP was measured to be about 16.7 nm.
# On a microwell plate, 50 μL of a solution containing 0.5 mM sample was added to 350 μL of 300 μM MPA-AuNP solution, respectively. […] To quantitatively confirm the color change before and after freezing, absorption spectra of each mixture were measured with a UH5300 spectrometer before and after freezing. The spectra were measured from 300 nm to 900 nm at a scan speed of 400 nm/min, and aggregation properties (E525/E650) of each mixture were compared. […]
# sperms = test: Sperm cryopreservation followed by in vitro fertilization and embryo culture; format: cell-based, C57BL/6J mice; settings: sperms frozen in 3% skim milk containing 10 to 20 μM
# Description: To cryopreserve sperms, a modified 18% raffinose pentahydrate/3% skim milk (Difco, Becton Dickinson) solution containing 100 mM L-glutamine or skim milk, to which a cryoprotectant according to the present invention was added, was prepared. A human tubal fluid (HTF) medium was used during the IVF process, and a potassium simplex optimized medium (PSOM) was used while 2-cell embryo was cultured to a blastocyst stage.
# A sperm cryopreservation solution dispensed in 60 μL was placed in a 35 mm culture dish and covered with paraffin oil. After male mice were sacrificed with […], a tail of epididymis was removed and divided into pieces, and all fats and blood were removed while observing under a microscope before transferring to the cryopreservation solution. The culture dish was kept at 37° C. for 3 minutes and gently stirred every minute to allow sperms to disperse from the tissues. […]
# Frozen sperms were thawed under various conditions, then added to IVF drops containing eggs and incubated at 37° C. […] After 24 hours from fertilization, a fertilization rate was calculated using the total number of 2-cell embryos as a percentage based on the total number of eggs.
# After performing IFV, 2-cell embryos were classified into a group to be cultured in the blastocyst stage and a group to be implanted in the oviduct of ICR females. After giving birth, the number of pups was recorded. […]
Compound,toxicity to mESC [1],survival and proliferation of mESC after freezing and thawing [3],IRI effect [4],cell viability with respect to mESC [1],further results
"C[S+](C)[O-] [DMSO, dimethyl sulfoxide, reference compound]",high toxicity,,,,
CC(O)C(NC(=O)C(CCC(=O)O)NC(=O)C(Cc1ccccc1)NC(=O)C(CCC(=O)O)NC(=O)C(Cc1ccccc1)NC(=O)OCC1c2ccccc2-c2ccccc21)C(N)=O (stereo not shown) [Fmoc-FEFET] (Fmoc-FEFET-NH2; configuration not given here),no toxicity,survival and proliferation of mESC was smoothly performed,,,"CMC ([2]; aqueous solution, compared to Fmoc-FFT): 22.8 µM; solubility ([2]; compared to Fmoc-FFT): improved"
CC(NC(=O)C(Cc1ccccc1)NC(=O)C(Cc1ccccc1)NC(=O)OCC1c2ccccc2-c2ccccc21)C(N)=O (stereo not drawn) [Fmoc-FFA] (Fmoc-Phe-Phe-Ala-NH2; configuration not given here),no toxicity,survival and proliferation of mESC was smoothly performed,had the IRI effect,,
NC(=O)C(CO)NC(=O)C(Cc1ccccc1)NC(=O)C(Cc1ccccc1)NC(=O)OCC1c2ccccc2-c2ccccc21 (stereo not drawn) [Fmoc-FFS] (Fmoc-Phe-Phe-Ser-NH2; configuration not given here),,,had the IRI effect,significant cell viability,
CC(O)C(NC(=O)C(Cc1ccccc1)NC(=O)C(Cc1ccccc1)NC(=O)OCC1c2ccccc2-c2ccccc21)C(N)=O (stereo not drawn) [Fmoc-FFT] (Fmoc-Phe-Phe-Thr-NH2; configuration not given here),no toxicity,survival and proliferation of mESC was smoothly performed,had the IRI effect,,"relative IRI activity ([4]; comparison between materials, MLGS): highest IRI activity; size of tissue pore ([5]; thawed beef tissue refrozen in liquid nitrogen, cut at -20 °C): 5±2.3 μm; size of recrystallized ice ([5]; versus no Fmoc-FFT added, -20 °C): significantly smaller; also recorded: remarkably smaller"
CC(C)C(NC(=O)C(Cc1ccccc1)NC(=O)C(Cc1ccccc1)NC(=O)OCC1c2ccccc2-c2ccccc21)C(N)=O (stereo not drawn) [Fmoc-FFV] (Fmoc-Phe-Phe-Val-NH2; configuration not given here),,,had the IRI effect,significant cell viability,
NC(=O)C(Cc1ccccc1)NC(=O)C(Cc1ccccc1)NC(=O)OCC1c2ccccc2-c2ccccc21 (stereo not drawn) [Fmoc-FF] (Fmoc-Phe-Phe-NH2; configuration not given here),no toxicity,survival and proliferation of mESC was smoothly performed,,,critical micellar concentration (CMC) ([2]; aqueous solution): 17 µM
CC(O)C(NC(=O)C(Cc1ccccc1)NC(=O)C(CC1=CN=C2C=CC=CC12)NC(=O)OCC1c2ccccc2-c2ccccc21)C(N)=O (stereo not shown) [Fmoc-WFT],,,had IRI effects,significant cell viability,aggregation of gold particles after freezing/thawing (absorption peak shift 525 nm to 650 nm) [6]: an aggregation phenomenon was exhibited
CC(O)C(NC(=O)C(CC1=c2ccccc2=NC1)NC(=O)C(CC1=CN=C2C=CC=CC12)NC(=O)OCC1c2ccccc2-c2ccccc21)C(N)=O (stereo not shown) [Fmoc-WWT],,,had IRI effects,significant cell viability,aggregation of gold particles after freezing/thawing (absorption peak shift 525 nm to 650 nm) [6]: an aggregation phenomenon was exhibited; rate of 2-cell embryo formation (sperms): ≥ 77%
CC(O)C(NC(=O)C(Cc1ccccc1)NC(=O)C(Cc1ccccc1)NC(=O)Cc1ccc2ccccc2c1)C(N)=O (stereo not shown) [Naph-FFT],,,had IRI effects,significant cell viability,
"Bovine serum albumin [BSA, reference compound]",,,,,aggregation of MPA-AuNP (color change) after freezing/thawing ([6]; MPA-AuNP + 2 μM BSA or PEG): aggregation did not occur
